Test results reported in ChEMBL document CHEMBL1201861, “Genomics of Drug Sensitity in Cancer screening data, Wellcome Trust Sanger Institute”.
Where a name gives a salt, the structure may show the parent alone.

Key:
SIG-M5 = assay: cells; type: functional, cell-based, Homo sapiens; conditions: Homo sapiens, SIG-M5;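 also: cell viability assay read-out, measuring how strongly growth of cultured human SIG-M5 cells is inhibited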
Description: SANGER: Inhibition of human SIG-M5 cell growth in a cell viability assay.

A-375 = assay: cells; type: functional, cell-based, Homo sapiens; conditions: Homo sapiens, A-375;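 also: growth inhibition of A375 cells, read out with a cell viability assay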
Description: SANGER: Inhibition of human A375 cell growth in a cell viability assay.

Raji = assay: cells; type: functional, cell-based, Homo sapiens; conditions: Homo sapiens, Raji;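 also: cell viability assay measuring inhibition of Raji cell growth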
Description: SANGER: Inhibition of human Raji cell growth in a cell viability assay.

SUP-T1 = assay: cells; type: functional, cell-based, Homo sapiens; conditions: Homo sapiens, SUP-T1;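 also: growth inhibition of human SUP-T1 cells, read out as cell viability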
Description: SANGER: Inhibition of human SUP-T1 cell growth in a cell viability assay.

NCI-H2009 = assay: cells; type: functional, cell-based, Homo sapiens; conditions: Homo sapiens, NCI-H2009;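 also: cell viability assay measuring inhibition of NCI-H2009 cell growth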
Description: SANGER: Inhibition of human NCI-H2009 cell growth in a cell viability assay.

HCC38 = assay: cells; type: functional, cell-based, Homo sapiens; conditions: Homo sapiens, HCC38;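 also: cell viability assay on the human HCC38 cell line, with IC50 marking the concentration that inhibits cell growth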
Description: SANGER: Inhibition of human HCC38 cell growth in a cell viability assay.

REH = assay: cells; type: functional, cell-based, Homo sapiens; conditions: Homo sapiens, REH;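 also: growth inhibition of REH cells determined with a cell viability read-out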
Description: SANGER: Inhibition of human REH cell growth in a cell viability assay.

NCI-H2452 = assay: cells; type: functional, cell-based, Homo sapiens; conditions: Homo sapiens, NCI-H2452;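 also: growth inhibition of NCI-H2452 cells, read out with a cell viability assay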
Description: SANGER: Inhibition of human NCI-H2452 cell growth in a cell viability assay.

JIYOYE = assay: cells; type: functional, cell-based, Homo sapiens; conditions: Homo sapiens, JIYOYE
Description: SANGER: Inhibition of human JiyoyeP-2003 cell growth in a cell viability assay.

HMV-2 cell line = assay: cells; type: functional, cell-based, Homo sapiens; conditions: Homo sapiens, HMV-2;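 also: growth inhibition of HMV-II cells, read out with a cell viability assay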
Description: SANGER: Inhibition of human HMV-II cell growth in a cell viability assay.

IPC-298 = assay: SANGER: Inhibition of human IPC-298 cell growth in a cell viability assay.; type: functional, cell-based; conditions: Homo sapiens, IPC-298
PFSK-1 = assay: cells; type: functional, cell-based, Homo sapiens; conditions: Homo sapiens, PFSK-1;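 also: cell viability assay measuring how strongly compounds suppress growth of human PFSK-1 cells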
Description: SANGER: Inhibition of human PFSK-1 cell growth in a cell viability assay.

G-402 = assay: cells; type: functional, cell-based, Homo sapiens; conditions: Homo sapiens, G-402
Description: SANGER: Inhibition of human G-402 cell growth in a cell viability assay.

CAL-148 = assay: cells; type: functional, cell-based, Homo sapiens; conditions: Homo sapiens, CAL-148
Description: SANGER: Inhibition of human CAL-148 cell growth in a cell viability assay.

CPC-N = assay: cells; type: functional, cell-based, Homo sapiens; conditions: Homo sapiens, CPC-N;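 also: growth inhibition of CPC-N cells, with a cell viability assay as the readout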
Description: SANGER: Inhibition of human CPC-N cell growth in a cell viability assay.

UO-31 = assay: cells; type: functional, cell-based, Homo sapiens; conditions: Homo sapiens, UO-31
Description: SANGER: Inhibition of human U031 cell growth in a cell viability assay.

C32 = assay: cells; type: functional, cell-based, Homo sapiens; conditions: Homo sapiens, C32;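 also: cell viability assay, with IC50 reflecting inhibition of C32 cell growth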
Description: SANGER: Inhibition of human C32 cell growth in a cell viability assay.

MDA-MB-468 = assay: cells; type: functional, cell-based, Homo sapiens; conditions: Homo sapiens, MDA-MB-468
Description: SANGER: Inhibition of human MDA-MB-468 cell growth in a cell viability assay.

MKN-28 = assay: cells; type: functional, cell-based, Homo sapiens; conditions: Homo sapiens, MKN-28;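 also: cell viability assay read-out, IC50 reflects suppression of growth of human MKN-28 cells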
Description: SANGER: Inhibition of human MKN28 cell growth in a cell viability assay.

CCF-STTG1 = assay: cells; type: functional, cell-based, Homo sapiens; conditions: Homo sapiens, CCF-STTG1;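 also: growth inhibition of human CCF-STTG1 cells, determined with a cell viability read-out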
Description: SANGER: Inhibition of human CCF-STTG1 cell growth in a cell viability assay.

YT = assay: cells; type: functional, cell-based, Homo sapiens; conditions: Homo sapiens, YT
Description: SANGER: Inhibition of human YT cell growth in a cell viability assay.

Calu-1 = assay: SANGER: Inhibition of human Calu-1 cell growth in a cell viability assay.; type: functional, cell-based; conditions: Homo sapiens, Calu-1
NCI-H1522 = assay: cells; type: functional, cell-based, Homo sapiens; conditions: Homo sapiens, NCI-H1522;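 also: growth inhibition of NCI-H1522 cells, read out with a cell viability assay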
Description: SANGER: Inhibition of human NCI-H1522 cell growth in a cell viability assay.

CHP-212 = assay: cells; type: functional, cell-based, Homo sapiens; conditions: Homo sapiens, CHP-212
Description: SANGER: Inhibition of human CHP-212 cell growth in a cell viability assay.

ARH-77 = assay: cells; type: functional, cell-based, Homo sapiens; conditions: Homo sapiens, ARH-77;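 also: growth inhibition of ARH-77 cells, read out by a cell viability assay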
Description: SANGER: Inhibition of human ARH-77 cell growth in a cell viability assay.

DV-90 = assay: cells; type: functional, cell-based, Homo sapiens; conditions: Homo sapiens, DV-90;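 also: Read-out is a viability assay, with IC50 reflecting the drop in DV-90 cell growth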
Description: SANGER: Inhibition of human DV-90 cell growth in a cell viability assay.

MFE-296 = assay: SANGER: Inhibition of human MFE-296 cell growth in a cell viability assay.; type: functional, cell-based; conditions: Homo sapiens, MFE-296
IM-9 = assay: SANGER: Inhibition of human IM-9 cell growth in a cell viability assay.; type: functional, cell-based; conditions: Homo sapiens, IM-9
NCI-H187 = assay: cells; type: functional, cell-based, Homo sapiens; conditions: Homo sapiens, NCI-H187;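 also: growth inhibition of NCI-H187 cells, read out as cell viability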
Description: SANGER: Inhibition of human NCI-H187 cell growth in a cell viability assay.

T47D = assay: cells; type: functional, cell-based, Homo sapiens; conditions: Homo sapiens, T47D;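 also: growth inhibition of human T47D cells, measured with a cell viability assay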
Description: SANGER: Inhibition of human T47D cell growth in a cell viability assay.

LoVo = assay: cells; type: functional, cell-based, Homo sapiens; conditions: Homo sapiens, LoVo;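 also: growth inhibition of human LoVo cells, read out with a cell viability assay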
Description: SANGER: Inhibition of human LoVo cell growth in a cell viability assay.

BHT-101 = assay: cells; type: functional, cell-based, Homo sapiens; conditions: Homo sapiens, BHT-101
Description: SANGER: Inhibition of human BHT-101 cell growth in a cell viability assay.

PLC-PRF-5 = assay: cells; type: functional, cell-based, Homo sapiens; conditions: Homo sapiens, PLC-PRF-5;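 also: growth inhibition of human PLC-PRF-5 cells, read out with a viability assay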
Description: SANGER: Inhibition of human PLC-PRF-5 cell growth in a cell viability assay.

DMS-53 = assay: cells; type: functional, cell-based, Homo sapiens; conditions: Homo sapiens, DMS-53;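 also: cell viability assay measuring growth inhibition of human DMS-53 cells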
Description: SANGER: Inhibition of human DMS-53 cell growth in a cell viability assay.

TT = assay: cells; type: functional, cell-based, Homo sapiens; conditions: Homo sapiens, TT
Description: SANGER: Inhibition of human TT cell growth in a cell viability assay.

EW-7 = assay: SANGER: Inhibition of human EW-7 cell growth in a cell viability assay.; type: functional, cell-based; conditions: Homo sapiens, EW-7
MCF7 = assay: cells; type: functional, cell-based, Homo sapiens; conditions: Homo sapiens, MCF7;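 also: growth inhibition of human MCF7 cells, read out with a cell viability assay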
Description: SANGER: Inhibition of human MCF7 cell growth in a cell viability assay.

IGROV-1 = assay: cells; type: functional, cell-based, Homo sapiens; conditions: Homo sapiens, IGROV-1;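 also: reduction of IGROV-1 cell growth, read out with a viability assay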
Description: SANGER: Inhibition of human IGROV-1 cell growth in a cell viability assay.

MEL-JUSO = assay: cells; type: functional, cell-based, Homo sapiens; conditions: Homo sapiens, MEL-JUSO;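 also: growth inhibition of human MEL-JUSO cells, read out with a cell viability assay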
Description: SANGER: Inhibition of human MEL-JUSO cell growth in a cell viability assay.

SMILES	IC50 (SIG-M5)	IC50 (A-375)	IC50 (Raji)	IC50 (SUP-T1)	IC50 (NCI-H2009)	IC50 (HCC38)	IC50 (REH)	IC50 (NCI-H2452)	IC50 (JIYOYE)	IC50 (HMV-2 cell line)	IC50 (IPC-298)	IC50 (PFSK-1)	IC50 (G-402)	IC50 (CAL-148)	IC50 (CPC-N)	IC50 (UO-31)	IC50 (C32)	IC50 (MDA-MB-468)	IC50 (MKN-28)	IC50 (CCF-STTG1)	also measured
COc1cccc2c1C(=O)c1c(O)c3c(c(O)c1C2=O)C[C@@](O)(C(=O)CO)C[C@@H]3O[C@H]1C[C@H](N)[C@H](O)[C@H](C)O1 [DOXORUBICIN]	25.7 nM	9.17 nM	335 nM	79.7 nM	51.8 nM	42.5 nM	8.11 nM	> 1.02 µM	138 nM	22.6 nM	196 nM	678 nM	99.1 nM	26.9 nM	68.4 nM	354 nM	> 1020 nM	76.2 nM	31.9 nM	35.5 nM	IC50 (YT): > 1020 nM; IC50 (Calu-1): 73.6 nM; IC50 (NCI-H1522): > 1020 nM; IC50 (CHP-212): 35 nM; IC50 (ARH-77): 110 nM; IC50 (DV-90): 329 nM; IC50 (MFE-296): 70.5 nM; IC50 (IM-9): 51.4 nM; IC50 (NCI-H187): 0.493 µM; IC50 (T47D): 470 nM; IC50 (LoVo): 81.8 nM; IC50 (BHT-101): 396 nM; IC50 (PLC-PRF-5): 901 nM; IC50 (DMS-53): > 1020 nM; IC50 (TT): > 1.02 µM; IC50 (EW-7): 30.6 nM; IC50 (MCF7): 11.7 nM; IC50 (IGROV-1): 7.2 nM; IC50 (MEL-JUSO): 14.5 nM
Nc1ccn([C@@H]2O[C@H](CO)[C@@H](O)C2(F)F)c(=O)n1 [GEMCITABINE]	< 4 nM	< 4 nM	431 nM	23.5 nM	< 4 nM	21.9 nM	14.5 nM	> 1.02 µM	39.4 nM	24.3 nM	255 nM	> 1020 nM	< 4 nM	17.2 nM	329 nM	< 4 nM	> 1020 nM	14.1 nM	> 1020 nM	31.4 nM	IC50 (YT): > 1020 nM; IC50 (Calu-1): 220 nM; IC50 (NCI-H1522): > 1020 nM; IC50 (CHP-212): 2.75 nM; IC50 (ARH-77): < 4 nM; IC50 (DV-90): > 1020 nM; IC50 (MFE-296): 51.4 nM; IC50 (IM-9): 347 nM; IC50 (NCI-H187): > 1.02 µM; IC50 (T47D): > 1020 nM; IC50 (LoVo): 5.71 nM; IC50 (BHT-101): 210 nM; IC50 (PLC-PRF-5): > 1020 nM; IC50 (DMS-53): > 1020 nM; IC50 (TT): > 1.02 µM; IC50 (EW-7): < 4 nM; IC50 (MCF7): < 4 nM; IC50 (IGROV-1): < 4 nM; IC50 (MEL-JUSO): < 4 nM
O=C(O)c1ccc(-c2c[nH]c3ncc(-c4ccccc4)cc23)cc1C1CCCC1 [GSK-650394]	4880 nM	5250 nM	> 16000 nM	> 16000 nM	3760 nM	> 16000 nM	> 16000 nM	> 16 µM	> 16000 nM	7510 nM	> 16000 nM	> 16000 nM	9130 nM	> 16000 nM	10300 nM	> 16000 nM	> 16000 nM	> 16000 nM	11700 nM	12600 nM	IC50 (YT): 9900 nM; IC50 (Calu-1): > 16000 nM; IC50 (NCI-H1522): > 16000 nM; IC50 (CHP-212): > 16000 nM; IC50 (ARH-77): > 16000 nM; IC50 (DV-90): > 16000 nM; IC50 (MFE-296): 11300 nM; IC50 (IM-9): > 16000 nM; IC50 (NCI-H187): > 16 µM; IC50 (T47D): > 16000 nM; IC50 (LoVo): 9910 nM; IC50 (BHT-101): > 16000 nM; IC50 (PLC-PRF-5): > 16000 nM; IC50 (DMS-53): > 16000 nM; IC50 (TT): > 16 µM; IC50 (EW-7): > 16000 nM; IC50 (MCF7): 1820 nM; IC50 (IGROV-1): 5290 nM; IC50 (MEL-JUSO): 4690 nM
COC1=CC(c2cc3ccccc3[nH]2)=N/C1=C\c1[nH]c(C)cc1C [OBATOCLAX MESYLATE]	< 62.5 nM	< 62.5 nM	1020 nM	29.5 nM	347 nM	2380 nM	46.4 nM	> 16 µM	203 nM	52.4 nM	< 62.5 nM	1210 nM	565 nM	1040 nM	1980 nM	814 nM	452 nM	917 nM	177 nM	926 nM	IC50 (YT): 73.4 nM; IC50 (Calu-1): 313 nM; IC50 (NCI-H1522): 2020 nM; IC50 (CHP-212): 81 nM; IC50 (ARH-77): 110 nM; IC50 (DV-90): 1760 nM; IC50 (MFE-296): 139 nM; IC50 (IM-9): 330 nM; IC50 (NCI-H187): 5.93 µM; IC50 (T47D): 1240 nM; IC50 (LoVo): 87.2 nM; IC50 (BHT-101): < 62.5 nM; IC50 (PLC-PRF-5): 1150 nM; IC50 (DMS-53): 478 nM; IC50 (TT): > 16 µM; IC50 (EW-7): < 62.5 nM; IC50 (MCF7): < 62.5 nM; IC50 (IGROV-1): < 62.5 nM; IC50 (MEL-JUSO): 24.7 nM
